Reference: patent publication US4440932A, “7β-Arylalkyl-7α-methyl-6-oxo or 6α-hydroxy-3-methoxy or 3-hydroxy-4,5α-epoxy-17-methyl or 17-cycloalkyl-methylmorphinans” (Miles Laboratories, Inc., priority 1982, dated 1984)
Values joined by “and” are separate entries in the source; they are usually repeats but may differ in a detail not shown here. Identical values can stand only once.

System: mice
Assay: acetic acid induced writhing test (analgesic effects in mice, subcutaneous)
Format: in vivo, mice (male CD-1)
Settings: Mus musculus, sc, acetic acid i.p. 15 min post drug, writhes counted over 20 min, read-out: ED50 (dose required to reduce the number of writhes by 50%)
Procedure: Analgesic effects of the test compounds were determined in mice by use of the acetic acid induced writhing test described by B. A. Whittle, Brit. J. Pharmacol., 22:246 (1964). In this test, at least 3 groups of 5 male CD-1 mice each were given subcutaneous doses of the test drug dissolved in distilled water. In all cases, 0.4 ml of a 0.5% v/v acetic acid in distilled water solution was administered intraperitoneally 15 min. post drug. The number of writhes in a 20 min. interval beginning 5 min. after the acetic acid injection were determined and compared with the number of writhes in a control group which had received only acetic acid.
Percent inhibition of writhing was calculated as: [formula]
The ED50 dose, i.e., the dose required to reduce the number of writhes by 50%, was determined graphically from a plot of % inhibition as a probit verus log dose. Confidence limits of 95% were calculated on the basis of those results falling in the range 16-84% inhibition. See Lichtfield, J. T. and Wilcoxon, F., J. Pharmacol. Exp. Ther., 96, 99-113 (1949).

Which ED50 does the source give for `COc1ccc2c3c1O[C@H]1[C@@H](O)[C@](C)(CCc4ccccc4)C[C@H]4[C@@H](C2)N(CC2CCC2)CC[C@@]341` [BBd] here?
Its ED50 is 1 µmol/kg and 0.51 mg/kg.

How did the ED50 turn out when `COc1ccc2c3c1O[C@H]1[C@@H](O)[C@](C)(CCCCc4ccccc4)C[C@H]4[C@@H](C2)N(CC2CCC2)CC[C@@]341` [BBf] was run?
Its ED50 is 11.3 µmol/kg and 6.1 mg/kg.

Which ED50 does the source give for `COc1ccc2c3c1O[C@H]1[C@@H](O)[C@](C)(CCCCc4ccccc4)C[C@H]4[C@@H](C2)N(C)CC[C@@]341` [BMf, 7α,17-Dimethyl-4,5α-epoxy-3-methoxy-7β-(4-phenylbutyl)morphinan-6α-ol] here?
The ED50 was 0.049 µmol/kg and 0.023 mg/kg.

With `COc1ccc2c3c1O[C@H]1[C@@H](O)[C@](C)(CCCCc4ccccc4)C[C@H]4[C@@H](C2)N(CC2CC2)CC[C@@]341` [BPf] as the compound, how does the ED50 read?
The ED50 was 0.5 µmol/kg and 0.26 mg/kg.

For `COc1ccc2c3c1O[C@H]1C(=O)[C@](C)(CCc4ccccc4)C[C@H]4[C@@H](C2)N(CC2CCC2)CC[C@]314` [CBd], which ED50 is on record?
Its ED50 is 0.01 µmol/kg and 0.011 mg/kg.

With `COc1ccc2c3c1O[C@H]1C(=O)[C@](C)(CCCCc4ccccc4)C[C@H]4[C@@H](C2)N(CC2CCC2)CC[C@]314` [CBf] as the compound, how does the ED50 read?
Its ED50 is 5.6 µmol/kg and 2.8 mg/kg.

`COc1ccc2c3c1O[C@H]1C(=O)[C@](C)(CCCCc4ccccc4)C[C@H]4[C@@H](C2)N(C)CC[C@]314` [CMf, 7α,17-Dimethyl-4,5α-epoxy-3-methoxy-7β-(4-phenylbutyl)morphinan-6-one] was tested. Which ED50 did it give?
The ED50 was 0.023 µmol/kg and 0.011 mg/kg.

`COc1ccc2c3c1O[C@H]1C(=O)[C@](C)(CCCCc4ccccc4)C[C@H]4[C@@H](C2)N(CC2CC2)CC[C@]314` [CPf] was tested. Which ED50 did it give?
Its ED50 is 2 µmol/kg and 1.1 mg/kg.

`C[C@@]1(CCc2ccccc2)C[C@H]2[C@H]3Cc4ccc(O)c5c4[C@@]2(CCN3CC2CCC2)[C@@H](O5)C1=O` [DBd] was tested. Which ED50 did it give?
The ED50 was 0.04 µmol/kg and 0.021 mg/kg.

`C[C@@]1(CCCCc2ccccc2)C[C@H]2[C@H]3Cc4ccc(O)c5c4[C@@]2(CCN3CC2CCC2)[C@@H](O5)C1=O` [DBf] was tested. Which ED50 did it give?
The ED50 was 0.17 µmol/kg and 0.08 mg/kg.

For `CN1CC[C@]23c4c5ccc(O)c4O[C@H]2C(=O)[C@](C)(CCCCc2ccccc2)C[C@H]3[C@H]1C5` [DMf, 7α,17-Dimethyl-4,5α-epoxy-3-hydroxy-7β-(4-phenylbutyl)morphinan-6-one], which ED50 is on record?
Its ED50 is 0.01 µmol/kg and 0.0048 mg/kg.

With `C[C@@]1(CCCCc2ccccc2)C[C@H]2[C@H]3Cc4ccc(O)c5c4[C@@]2(CCN3CC2CC2)[C@@H](O5)C1=O` [DPf] as the compound, how does the ED50 read?
Its ED50 is 0.11 µmol/kg and 0.07 mg/kg.
